Assays:
TNFα, IL-1β and IL-6 = assay: ELISA of inflammatory cytokines in lung or lung macrophages of mice given exosomes^Nsp12Nsp13; format: in vivo, C57BL/6 mice; conditions: lung macrophages, TNFα and IL-6 ELISA, i.p. pretreatment, FIG. 10B
[1] = system: lung epithelial A549 cells; assay: Apoptosis of A549 cells by flow cytometry (Annexin V/7-AAD); format: cell-based, human
[2] = system: lung epithelial cells (EpCAM^+); assay: Lung apoptosis in mice given exosomes^Nsp12Nsp13 (TUNEL, Annexin V flow cytometry of EpCAM+ cells); format: in vivo, C57BL/6 mice; conditions: inhibitor pretreatment
NF-κB (p65) = format: in vivo, C57BL/6 mice; conditions: inhibitor daily for three days at 5 mg/kg/d before intratracheal exosomes

Cc1ccc(S(=O)(=O)/C=C/C#N)cc1 [Bay 11-7821]
inflammatory cytokines induced by exosomes^Nsp12Nsp13 (TNFα, IL-1β and IL-6): attenuation of inflammatory cytokines | A549 cell apoptosis on direct exposure ([1]; A549 cells presented to Nsp12/13, Bay 11-7821, FIG. 5F top panel): little influence | apoptosis of lung epithelial cells induced by supernatant from U937 cells treated with exosomes^Nsp12Nsp13 ([1]; A549 cells, antibodies 10 ng/ml, FIG. 5F middle and bottom panel): inhibited | induction of lung epithelial cell (EpCAM+) apoptosis ([2]; Annexin V flow cytometry, FIG. 5E): blocked | lung apoptosis induced by exosomes^Nsp12Nsp13 (TUNEL staining) ([2]; lung sections, FIG. 5D): reduced | lung macrophage NF-κB activity induced by exosomes^Nsp12Nsp13 (NF-κB (p65)): inhibited

Source: US20230201244A1, “COMPOSITIONS AND METHODS FOR PREVENTING AND/OR TREATING MICROBIAL INFECTIONS” (University of Louisville Research Foundation, Inc., priority 2020, published 2023)
